Reference: article PMC9966414, “Pharmacological Profiling of KATP Channel Modulators: An Outlook for New Treatment Opportunities for Migraine” (Pharmaceuticals, 2023)

Tests used:
Kir6.2/SUR1 = molecular target: T1, Kir6.2/SUR1 (Homo sapiens, UniProt Q09428+Q14654); assay: thallium-flux fluorescence assay (FLIPR, BTC/AM); type: cell-based
T1 construct: gene KCNJ11; full-length human subunits co-expressed stably in HEK293 cells; GenScript vectors; four Kir6.2 plus four SUR1
Source text: thallium-flux fluorescence assay (FLIPR, BTC/AM) on Kir6.2/SUR1

Kir6.1/SUR2B = molecular target: T2, Kir6.1/SUR2B (Homo sapiens, UniProt O60706+Q15842); assay: thallium-flux fluorescence assay (FLIPR, BTC/AM); type: cell-based
T2 construct: gene KCNJ8; full-length human subunits co-expressed stably in HEK293 cells; GenScript vectors; four Kir6.1 plus four SUR2B
Source text: thallium-flux fluorescence assay (FLIPR, BTC/AM) on Kir6.1/SUR2B

Kir6.2/SUR2A = molecular target: T3, Kir6.2/SUR2A (Homo sapiens, UniProt O60706+Q14654); assay: thallium-flux fluorescence assay (FLIPR, BTC/AM); type: cell-based
T3 construct: gene KCNJ11; full-length human subunits co-expressed stably in HEK293 cells; GenScript vectors; four Kir6.2 plus four SUR2A
Source text: (§1) thallium-flux fluorescence assay (FLIPR, BTC/AM) on Kir6.2/SUR2A

[1] = thallium-flux fluorescence assay (FLIPR, BTC/AM); type: cell-based, Homo sapiens; settings: read-out: Kir6.1/SUR2B / EC50
Source text: as §1

[2] = thallium-flux fluorescence assay (FLIPR, BTC/AM); type: cell-based, Homo sapiens; settings: read-out: Kir6.2/SUR1 / IC50

T2 sequence (Q15842 whole entry): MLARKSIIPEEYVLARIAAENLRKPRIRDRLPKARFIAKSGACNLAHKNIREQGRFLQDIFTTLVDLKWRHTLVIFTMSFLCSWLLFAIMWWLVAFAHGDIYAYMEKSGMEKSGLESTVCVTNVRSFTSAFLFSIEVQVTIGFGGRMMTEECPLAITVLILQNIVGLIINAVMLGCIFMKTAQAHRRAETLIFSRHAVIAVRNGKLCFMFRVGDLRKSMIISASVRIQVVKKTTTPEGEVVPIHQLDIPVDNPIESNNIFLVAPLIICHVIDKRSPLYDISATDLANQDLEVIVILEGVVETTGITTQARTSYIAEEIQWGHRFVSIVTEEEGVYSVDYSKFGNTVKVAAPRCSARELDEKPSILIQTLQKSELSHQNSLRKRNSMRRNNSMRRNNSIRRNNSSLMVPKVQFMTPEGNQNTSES
T2 sequence (O60706 1-1549 isoform O60706-2): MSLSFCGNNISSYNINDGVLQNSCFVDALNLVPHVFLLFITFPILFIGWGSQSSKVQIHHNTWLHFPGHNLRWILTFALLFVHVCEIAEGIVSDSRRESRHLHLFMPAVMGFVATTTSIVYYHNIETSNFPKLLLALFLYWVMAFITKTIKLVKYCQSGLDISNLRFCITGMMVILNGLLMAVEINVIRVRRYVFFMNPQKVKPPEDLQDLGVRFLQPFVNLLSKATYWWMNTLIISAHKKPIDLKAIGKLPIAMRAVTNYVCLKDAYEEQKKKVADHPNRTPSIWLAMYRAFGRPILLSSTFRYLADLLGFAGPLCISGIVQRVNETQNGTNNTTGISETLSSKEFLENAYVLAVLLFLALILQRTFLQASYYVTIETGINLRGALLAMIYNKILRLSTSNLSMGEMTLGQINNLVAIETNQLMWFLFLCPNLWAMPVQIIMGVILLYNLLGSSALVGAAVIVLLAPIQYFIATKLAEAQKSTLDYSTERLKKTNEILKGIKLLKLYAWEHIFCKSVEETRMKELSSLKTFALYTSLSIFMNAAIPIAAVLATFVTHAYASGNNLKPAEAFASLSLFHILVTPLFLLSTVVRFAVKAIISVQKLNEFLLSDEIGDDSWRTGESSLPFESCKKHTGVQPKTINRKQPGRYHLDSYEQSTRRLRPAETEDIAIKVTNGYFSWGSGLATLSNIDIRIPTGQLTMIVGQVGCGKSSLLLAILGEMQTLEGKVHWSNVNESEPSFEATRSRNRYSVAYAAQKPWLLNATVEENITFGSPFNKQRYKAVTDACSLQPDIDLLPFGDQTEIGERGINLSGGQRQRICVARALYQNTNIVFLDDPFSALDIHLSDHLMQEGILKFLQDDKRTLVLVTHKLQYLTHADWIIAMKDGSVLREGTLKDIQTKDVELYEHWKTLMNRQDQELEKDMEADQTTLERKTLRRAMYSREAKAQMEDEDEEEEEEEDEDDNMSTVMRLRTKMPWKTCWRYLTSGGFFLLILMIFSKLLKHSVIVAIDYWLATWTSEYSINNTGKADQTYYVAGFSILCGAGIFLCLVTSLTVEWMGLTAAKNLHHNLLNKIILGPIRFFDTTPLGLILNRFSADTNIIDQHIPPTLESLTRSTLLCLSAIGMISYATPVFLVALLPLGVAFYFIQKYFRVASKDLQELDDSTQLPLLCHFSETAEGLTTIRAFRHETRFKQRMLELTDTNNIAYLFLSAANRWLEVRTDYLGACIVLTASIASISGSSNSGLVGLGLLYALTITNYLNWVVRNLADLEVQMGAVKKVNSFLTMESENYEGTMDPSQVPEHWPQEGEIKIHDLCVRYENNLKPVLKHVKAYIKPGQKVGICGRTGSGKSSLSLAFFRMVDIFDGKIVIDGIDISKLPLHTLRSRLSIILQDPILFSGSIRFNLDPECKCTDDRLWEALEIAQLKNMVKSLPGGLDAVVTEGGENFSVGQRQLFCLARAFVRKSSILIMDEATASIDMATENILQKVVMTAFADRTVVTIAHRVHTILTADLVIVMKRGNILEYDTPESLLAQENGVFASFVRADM
T1 sequence (Q14654 whole entry): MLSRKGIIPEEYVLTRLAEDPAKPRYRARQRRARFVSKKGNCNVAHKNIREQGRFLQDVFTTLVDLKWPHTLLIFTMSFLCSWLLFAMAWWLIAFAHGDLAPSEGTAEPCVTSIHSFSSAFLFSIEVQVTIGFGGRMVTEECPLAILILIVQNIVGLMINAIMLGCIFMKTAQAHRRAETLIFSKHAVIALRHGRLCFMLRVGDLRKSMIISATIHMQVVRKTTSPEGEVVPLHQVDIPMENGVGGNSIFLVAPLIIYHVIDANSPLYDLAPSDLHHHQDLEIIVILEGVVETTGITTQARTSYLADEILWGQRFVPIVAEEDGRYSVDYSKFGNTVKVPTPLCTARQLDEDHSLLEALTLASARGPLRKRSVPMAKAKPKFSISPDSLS
T1 sequence (Q09428 whole entry): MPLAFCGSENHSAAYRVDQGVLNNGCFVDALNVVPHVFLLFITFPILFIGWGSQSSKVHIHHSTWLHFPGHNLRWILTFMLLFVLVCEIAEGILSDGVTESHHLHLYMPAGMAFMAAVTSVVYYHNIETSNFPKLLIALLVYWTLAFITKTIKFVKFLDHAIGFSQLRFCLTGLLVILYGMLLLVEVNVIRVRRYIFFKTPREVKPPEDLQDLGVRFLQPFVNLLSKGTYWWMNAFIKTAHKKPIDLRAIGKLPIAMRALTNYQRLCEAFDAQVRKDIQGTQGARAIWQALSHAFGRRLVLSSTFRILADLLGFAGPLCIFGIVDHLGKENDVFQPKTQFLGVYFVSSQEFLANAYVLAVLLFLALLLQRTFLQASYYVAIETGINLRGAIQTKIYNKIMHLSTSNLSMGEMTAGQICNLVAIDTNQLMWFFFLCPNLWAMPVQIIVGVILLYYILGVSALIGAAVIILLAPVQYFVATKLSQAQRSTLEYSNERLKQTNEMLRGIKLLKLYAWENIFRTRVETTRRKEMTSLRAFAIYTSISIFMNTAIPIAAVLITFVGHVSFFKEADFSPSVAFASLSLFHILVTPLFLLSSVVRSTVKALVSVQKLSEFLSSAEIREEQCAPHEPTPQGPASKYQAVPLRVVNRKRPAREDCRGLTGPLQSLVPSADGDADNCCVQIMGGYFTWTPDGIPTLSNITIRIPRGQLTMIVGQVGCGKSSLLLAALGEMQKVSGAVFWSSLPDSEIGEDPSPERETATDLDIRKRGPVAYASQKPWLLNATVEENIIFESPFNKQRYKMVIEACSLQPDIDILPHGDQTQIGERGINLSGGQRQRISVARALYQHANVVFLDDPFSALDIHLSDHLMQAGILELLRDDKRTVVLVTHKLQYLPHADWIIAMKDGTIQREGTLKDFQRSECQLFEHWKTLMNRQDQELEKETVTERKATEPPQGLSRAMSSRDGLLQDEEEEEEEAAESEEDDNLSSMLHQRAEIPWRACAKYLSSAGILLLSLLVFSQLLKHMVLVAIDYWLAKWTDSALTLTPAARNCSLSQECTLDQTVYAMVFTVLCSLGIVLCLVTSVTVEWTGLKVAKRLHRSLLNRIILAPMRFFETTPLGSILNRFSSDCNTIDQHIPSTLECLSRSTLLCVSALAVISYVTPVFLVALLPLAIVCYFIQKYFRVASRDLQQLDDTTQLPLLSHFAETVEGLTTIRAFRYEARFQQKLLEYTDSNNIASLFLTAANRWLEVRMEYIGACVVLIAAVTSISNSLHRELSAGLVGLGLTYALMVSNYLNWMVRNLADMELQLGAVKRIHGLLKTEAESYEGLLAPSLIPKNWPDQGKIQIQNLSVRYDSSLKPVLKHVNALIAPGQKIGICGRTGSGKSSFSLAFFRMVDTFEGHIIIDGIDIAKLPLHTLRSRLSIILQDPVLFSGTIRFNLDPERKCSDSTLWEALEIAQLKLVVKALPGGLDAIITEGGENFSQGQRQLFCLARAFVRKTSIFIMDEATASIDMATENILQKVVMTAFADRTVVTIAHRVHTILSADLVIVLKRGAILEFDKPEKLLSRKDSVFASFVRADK

Row | Compound | EC50 (Kir6.1/SUR2B) | IC50 (Kir6.1/SUR2B) | IC50 (Kir6.2/SUR1) | IC50 (Kir6.2/SUR2A) | other results
1 | CC(N/C(=N\C#N)Nc1ccncc1)C(C)(C)C (centres unmarked) [Pinacidil] |  |  |  |  | EC50 (Kir6.2/SUR1): > 30 µM
2 | CCC(C)(C)NC(=NC#N)Nc1cccnc1 [P1075] | 0.052 ± 0.024 µM |  |  |  | EC50 (Kir6.2/SUR1): > 30 µM; EC50 (Kir6.2/SUR2A): 0.51 ± 0.27 µM
3 | CC1(C)Oc2ccc(C#N)cc2[C@H](N(Cc2ncc[nH]2)c2ccc(Cl)cc2)[C@H]1O [BMS-191095] | > 30 µM |  |  |  | EC50 [1]: > 30 µM
4 | CC1=NS(=O)(=O)c2cc(Cl)ccc2N1 [Diazoxide] | 9.7 ± 5.7 µM |  |  |  | EC50 (Kir6.2/SUR2A): > 100 µM
5 | Cc1ccc(S(=O)(=O)NC(=O)NN2CC3CCCC3C2)cc1 (centres unmarked) [Gliclazide] |  | 24 ± 11 µM | 0.61 ± 0.45 µM | 55 ± 22 µM | 
6 | C1CCC(/N=C(\NC23CC4CC(CC(C4)C2)C3)N2CCOCC2)CC1 [PNU-37883A] |  | 0.29 ± 0.21 µM | > 100 µM |  | IC50 [2]: > 100 µM
7 | CC(=O)N(O)[C@@H]1c2cc(C#N)ccc2OC(C)(C)[C@H]1O [Y-26763] | 0.075 ± 0.042 µM |  |  |  | EC50 (Kir6.2/SUR1): 4.1 ± 2.1 µM; EC50 (Kir6.2/SUR2A): 1.3 ± 0.97 µM
8 | CCCCNC(=O)NS(=O)(=O)c1ccc(C)cc1 [Tolbutamide] |  | 41 ± 11 µM | 7.5 ± 4.1 µM | 71 ± 12 µM | 
9 | CC1(NC2=NS(=O)(=O)c3sc(Cl)cc3N2)CC1 [NN414] | > 30 µM |  |  |  | 
10 | O=C1CCCC2=C1[C@H](c1ccc(F)c(Br)c1)C1=C(CCS1(=O)=O)N2 [A-278637] | 0.17 ± 0.089 µM |  |  |  | EC50 (Kir6.2/SUR1): > 30 µM; EC50 (Kir6.2/SUR2A): 1.6 ± 0.89 µM

Further lines, with some results ahead:

Row | EC50 (Kir6.1/SUR2B) | IC50 (Kir6.1/SUR2B) | IC50 (Kir6.2/SUR1) | IC50 (Kir6.2/SUR2A) | Compound | other results
11 |  | 0.033 ± 0.023 µM | 0.0023 ± 0.0012 µM | 0.017 ± 0.009 µM | CCC1=C(C)CN(C(=O)NCCc2ccc(S(=O)(=O)NC(=O)N[C@H]3CC[C@H](C)CC3)cc2)C1=O [Glimepiride] | 
12 |  | 0.0011 ± 0.0006 µM | 0.0039 ± 0.0014 µM | 0.00094 ± 0.00046 µM | CCOc1cc(CC(=O)N[C@@H](CC(C)C)c2ccccc2N2CCCCC2)ccc1C(=O)O [Repaglinide] | 
13 |  | 0.021 ± 0.014 µM |  | 0.0099 ± 0.0041 µM | COc1ccc(Cl)cc1C(=O)NCCc1ccc(S(=O)(=O)NC(=O)NC2CCCCC2)cc1 [Glibenclamide] | 
14 |  | 10 ± 6.5 µM | 14 ± 3.1 µM | 30 ± 16 µM | Cc1c(C)c2c(c(C)c1O)CCC(C)(COc1ccc(CC3SC(=O)NC3=O)cc1)O2 (centres unmarked) [Troglitazone] | 
15 | 0.15 ± 0.09 µM |  |  |  | CC(O)(C(=O)Nc1ccc(S(=O)(=O)c2ccccc2)cc1)C(F)(F)F (centres unmarked) [ZM226600] | EC50 (Kir6.2/SUR1): > 30 µM; EC50 (Kir6.2/SUR2A): 2.8 ± 2.2 µM
16 |  | 4.5 ± 3.6 µM | 0.0069 ± 0.005 µM | 0.78 ± 0.58 µM | COc1ccc2c(c1)C(=O)N(CCc1ccc(S(=O)(=O)NC(=O)NC3CCCCC3)cc1)C(=O)C2(C)C [Gliquidone] | 
17 |  | 8.5 ± 4.6 µM | > 100 µM |  | CN(CCOc1ccc(CC2SC(=O)NC2=O)cc1)c1ccccn1 (centres unmarked) [Rosiglitazone] | IC50 [2]: > 100 µM
18 |  | 14 ± 6.7 µM | 0.044 ± 0.013 µM | 16 ± 7.3 µM | CC(C)[C@H]1CC[C@H](C(=O)N[C@H](Cc2ccccc2)C(=O)O)CC1 [Nateglinide] | 
